Where “and” joins values, the source holds several entries; their conditions need not be identical. Equal values may be shown once. Square brackets hold non-standard residues; d marks the D form. Peptide text beside a SMILES is read from it. * marks the point of attachment. Dolaproine = CO[C@@H]([C@@H]1CCCN1)[C@@H](C)C(=O)O; Dil = CC[C@H](C)[C@H](NC)[C@@H](CC(=O)O)OC; X1 = C[C@@H](N*)[C@@H](O)c1ccccc1; NMeV = CN[C@H](C(=O)O)C(C)C
Experiments:
[1] = Body weight in male BALB/c nude mice bearing HPAC established tumors; settings: QW x 4, MMAE 0.191 mg/kg IP; for Body Weight (g), Mean: group mean; for Body Weight (g), Mean / Body Weight: ADC (OBI-999) and OBI-888 10 mg/kg IV; for Body Weight: individual animals
Experimental: Male nu/nu nude, aged 6-8 weeks, were obtained from Shanghai Lingchang and used. The mice were kept in individual ventilation cages at constant temperature and humidity with four animals in each cage (temperature: 20-26° C. and humidity: 40-70%). The cages were made of polycarbonate and the size was 300 mm×200 mm×180 mm. The bedding material was corn cob, which was changed twice per week. Animals had free access to irradiation sterilized dry granule food and drinking water during the entire study period. The identification labels for each cage contained the following information: number of animals, sex, strain, date received, treatment, study number, group number and the starting date of the treatment.

[2] = Body weight, mortality and signs of overt toxicity in MCF-7 implanted female nude (nu/nu) mice; format: in vivo, mouse; settings: for Body Weight (g), individual animals No. 1-6: single animal; for Body Weight (g), individual mice: individual mice No. 1-6
Experimental: In a xenograft tumor model of human breast adenocarcinoma, MCF-7 (ATCC HTB-22) cells were subcutaneously (SC) implanted (2.0×10^7 cells in 1:1 matrigel/media mixture at 0.2 mL/mouse) into the right flank of female athymic (nu/nu) nude mice. Supplemental injections of estradiol cyclopentyl propionate (100 μg/mouse) were administered subcutaneously between the scapulae twice weekly, from one week prior to cell implantation to study completion. Tumor-implanted mice were divided into eleven treatment groups, each group containing six animals, and test agent administrations were initiated one day after cell implantation (denoted as Day 1). 3.1 Test Substances and Dosing Pattern
Two control groups received intravenous injections of vehicle (25 mM Sodium Citrate, pH 6.5+100 mM NaCl) once weekly for either six weeks (group 1) or two weeks (group 2).
Female (nu/nu) nude mice aged 6-7 weeks obtained from BioLasco Taiwan (under Charles River Laboratories Licensee) were used. The animals were housed in individually ventilated cages (IVG, 36 Mini Isolator System). The allocation for 3-5 animals was 27×20×14 in cm. All animals were maintained in a hygienic environment under controlled temperature (20-24° C.) and humidity (30-70%) with 12-hour light/dark cycle. Free access to standard lab diet (Oriental Yeast Co., Ltd., Japan) and autoclaved tap water were granted. All aspects of this work including housing, experimentation, and animal disposal were performed in general accordance with the “Guide for the Care and Use of Laboratory Animals: Eighth Edition” (National Academies Press, Washington, D.C., 2011) in our AAALAC-accredited laboratory animal facility. In addition, the animal care and use protocol was reviewed and approved by the IACUC at Eurofins Panlabs Taiwan, Ltd.
The tumor volumes, body weights, mortality, and signs of overt toxicity were monitored and recorded twice weekly for 77 days. Tumor volume (mm^3) was calculated according to the formula for a prolate ellipsoid: length (mm)×[width (mm)]^2×0.5. Tumor growth inhibition was calculated as T/C (treatment/control)×100%. A T/C value≤42% was considered significant anti-tumor activity. Two-way ANOVA followed by Bonferroni test was used to ascertain the statistical significance of groups compared to respective vehicle control (*p<0.05).

CC[C@H](C)[C@@H]([C@@H](CC(=O)N1CCC[C@H]1[C@H](OC)[C@@H](C)C(=O)N[C@H](C)[C@@H](O)c1ccccc1)OC)N(C)C(=O)[C@@H](NC(=O)[C@@H](NC)C(C)C)C(C)C [MMAE, monomethyl auristatin E] (H-[NMeV]V[Dil][Dolaproine]-X1)
Body Weight (g), Mean ([1]; Day 0): 24.2 g | Body Weight ([1]; Day 0): 25.4 g and 24.2 g and 23.3 g and 24.0 g and 22.7 g | Body Weight (g), Mean ([1]; Day 3): 22.1 g | Body Weight ([1]; Day 3): 21.8 g and 22.4 g and 21.5 g and 21.6 g (2×) and 24.0 g and 20.7 g and 23.1 g | Body Weight (g), Mean ([1]; Day 4): 21.9 g | Body Weight ([1]; Day 4): 21.0 g and 21.3 g and 20.5 g and 22.0 g and 19.6 g and 22.1 g | Body Weight (g), Mean ([1]; Day 7): 23.6 g | Body Weight ([1]; Day 7): 18.8 g and 25.1 g and 27.0 g and 21.7 g and 23.8 g | Body Weight ([1]; Day 9): 22.2 g | Body Weight ([1]; Day 10): 26.0 g | Body Weight ([1]; Day 14): 24.4 g and 26.0 g | Body Weight ([1]; Day 17): 23.9 g and 26.0 g and 23.6 g | Body Weight ([1]; Day 21): 23.8 g | Body Weight (g), Mean ([1]; Day 28): 25.4 g | Body Weight ([1]; Day 31): 25.0 g and 25.4 g | Body Weight (g), Mean ([1]; Day 35): 26.0 g | Body Weight ([1]; Day 35): 27.2 g | Body Weight ([1]; Day 37): 26.7 g and 24.0 g | Animal status (Died / Euthanized) ([1]; individual animal, OBI-888 10 mg/kg IV): Died and Euthanized | Body Weight (g), individual animals No. 1-6 ([2]; 0.057 mg/kg × 6, IV once weekly, Day 53): 26 g (3×) and 28 g and 22 g and 24 g | Body Weight (g), individual animals No. 1-6 ([2]; 0.057 mg/kg × 6, IV once weekly, Day 56): 24 g and 27 g and 26 g (2×) and 23 g and 25 g | Body Weight (g), individual animals No. 1-6 ([2]; 0.057 mg/kg × 6, IV once weekly, Day 60): 27 g (3×) and 28 g and 24 g and 26 g | Body Weight (g), individual animals No. 1-6 ([2]; 0.057 mg/kg × 6, IV once weekly, Day 63): 27 g (2×) and 26 g (2×) and 29 g and 24 g | Body Weight (g), individual animals No. 1-6 ([2]; 0.057 mg/kg × 6, IV once weekly, Day 67): 27 g (2×) and 28 g (2×) and 26 g and 25 g | Body Weight (g), individual animals No. 1-6 ([2]; 0.057 mg/kg × 6, IV once weekly, Day 70): 27 g and 28 g (2×) and 25 g (2×) and 26 g | Body Weight (g), Mean ([2]; 0.057 mg/kg × 6, IV once weekly, Day 74, group mean): 26.7 g | Body Weight (g), individual animals No. 1-6 ([2]; 0.057 mg/kg × 6, IV once weekly, Day 74): 27 g (2×) and 29 g and 24 g and 25 g and 28 g | Body Weight (g), individual animals No. 1-6 ([2]; 0.057 mg/kg × 6, IV once weekly, Day 77): 28 g and 29 g and 23 g and 27 g (2×) and 24 g | Body Weight (g), individual mice ([2]; 0.057 mg/kg × 6 IV once weekly, Day 1): 23 g (2×) and 22 g (2×) and 24 g and 21 g | Body Weight (g), Mean ([2]; 0.057 mg/kg × 6 IV once weekly, Day 1, mean of 6 mice): 22.5 g | Body Weight (g), individual mice ([2]; 0.057 mg/kg × 6 IV once weekly, Day 5): 24 g (3×) and 22 g (3×) | Body Weight (g), Mean ([2]; 0.057 mg/kg × 6 IV once weekly, Day 5, mean of 6 mice): 23.0 g | Body Weight (g), individual mice ([2]; 0.057 mg/kg × 6 IV once weekly, Day 8): 26 g and 23 g (2×) and 24 g (2×) and 25 g | Body Weight (g), Mean ([2]; 0.057 mg/kg × 6 IV once weekly, Day 8, mean of 6 mice): 24.2 g | Body Weight (g), individual mice ([2]; 0.057 mg/kg × 6 IV once weekly, Day 12): 26 g and 24 g (2×) and 25 g (3×) | Body Weight (g), individual mice ([2]; 0.057 mg/kg × 6 IV once weekly, Day 15): 27 g and 25 g (4×) and 26 g | Body Weight (g), individual mice ([2]; 0.057 mg/kg × 6 IV once weekly, Day 19): 26 g and 24 g and 25 g (4×) | Body Weight (g), Mean ([2]; 0.057 mg/kg × 6 IV once weekly, Day 19, mean of 6 mice): 25.0 g | Body Weight (g), individual mice ([2]; 0.057 mg/kg × 6 IV once weekly, Day 22): 27 g and 25 g (2×) and 24 g and 26 g (2×) | Body Weight (g), individual mice ([2]; 0.057 mg/kg × 6 IV once weekly, Day 26): 27 g and 25 g (2×) and 24 g (2×) and 26 g

— US11000601B2, “Conjugated biological molecules, pharmaceutical compositions and methods” (OBI Pharma, Inc., priority 2016, dated 2021)
